According to patent US6528274B1, “Method for the production of sialylated oligosaccharides” (priority 1998, dated 2003):

Experiments:
[1] = molecular target: viral α2,3-sialyltransferase (Myxoma virus, UniProt Q9YJT3); assay type: biochemical; conditions: LacNAc-O-gr = 100; for Relative Rate (2.7 mM): acceptor 2.7 mM, relative rate of sialic acid transfer, 37° C., pH 6.1
Experimental: Acceptor (54 nmol), CMP-NANA (40 nmol), and CMP-^3H-NANA (150,000-180,000 dpm) were added to a mixture of cell lysate (16 μL), water (3 μL) and 1 μL of assay buffer (250 mM MES, 0.5% Triton CF54, pH 7.0) in a 0.5 mL microfuge tube. Reaction mixtures were incubated at 37° C., diluted with water to 200 μL and loaded onto a C18 Sep-Pak reverse-phase cartridge which had been pre-equilibrated with 20 mL of MeOH and 20 mL of water. The cartridge was washed with 50 mL of water and the product eluted with 4 mL of MeOH into a scintillation vial. The radioactivity of the MeOH eluates were quantitated by liquid scintillation in 10 mL of EcoLite (+) scintillation cocktail (ICN, Montreal, Quebec, Canada) in a Beckman liquid scintillation counter (LS1801).
Acceptor (54 nmol), CMP-NANA (40 nmol), and CMP-^3H-NANA (150,000-180,000 dpm) were added to a mixture of cell lysate (16 μL), water (3 μL) and assay buffer (250 mM MES, 0.5% Triton CF54, pH 6.1) in a 0.5 mL microfuge tube.

[2] = system: myxoma viral α2,3-sialyl transferase; assay: Transfer of sialic acid (CMP-3H-NANA) to Lewis a and Lewis x oligosaccharide acceptors by viral cell lysate, pH 7.0; assay type: biochemical, myxoma virus; conditions: acceptor 54 nmol, 37° C., duplicate experiments
Experimental: The myxoma viral α2,3-sialyl transferase cell lysate was prepared by a method similar to that set forth in International Patent Application Publication No. WO97/18302^65, which is incorporated herein by reference.
Ten T180 flasks of confluent layers of European rabbit kidney cell (RK13) cells were infected with Brazilian myxoma virus strain, Lausanne (Lu) (ATCC VR-115) isolated Campinas, Brazil, 1949 and Uriarra (Ur) isolated Australian Capital Territory, 1953 (a derivative of Moses strain (ATCC VR-116)). The cells were kept at 37° C. for 24 hours. Twenty-four hours post infection, the cells were detached by scraping and washed with PBS. Cell lysates were prepared by suspension in 20 mL of extraction buffer (50 mM MES, pH 6.1, 0.5% Triton-X100, 100 mM NaCl, 1.5 mM MgCl2, 0.1 mM PMSF, […] aprotinin) at 4° C., for 45 minutes. The lysate was clarified by centrifugation at 2,000 g at 4° C. for 15 minutes. […]
Acceptor (54 nmol), CMP-NANA (40 nmol), and CMP-^3H-NANA (150,000-180,000 dpm) were added to a mixture of cell lysate (16 μL), water (3 μL) and 1 μL of assay buffer (250 mM MES, 0.5% Triton CF54, pH 7.0) in a 0.5 mL microfuge tube. […] The radioactivity of the MeOH eluates were quantitated by liquid scintillation in 10 mL of EcoLite (+) scintillation cocktail (ICN, Montreal, Quebec, Canada) in a Beckman liquid scintillation counter (LS1801). […]

SMILES | Relative Rate (2.7 mM) [1] | Relative Vmax [1] | dpm (radioactive transfer to acceptor) ([2]; Incubation time 170 min., total CMP-NANA 176174) | dpm (radioactive transfer to acceptor) ([2]; Incubation time 90 min., total CMP-NANA 152644)
CCCCCCCCO[C@@H]1O[C@H](CO)[C@@H](O[C@@H]2O[C@H](CO)[C@H](O)[C@](C)(O)[C@H]2O)[C@H](O)[C@H]1O [3′-C-methyl-lactose-octyl] | 4.1 | – | – | –
CCCCCCCCO[C@@H]1O[C@H](CO)[C@@H](O[C@@H]2O[C@H](CO)[C@](C)(O)[C@H](O)[C@H]2O)[C@H](O)[C@H]1O [4′-C-methyl-lactose-octyl] | 20 | – | – | –
CCCCCCCCO[C@@H]1O[C@H](CO)[C@@H](O[C@@H]2O[C@H](C(C)(C)O)[C@H](O)[C@H](O)[C@H]2O)[C@H](O)[C@H]1NC(C)=O [6′,6′-C-dimethyl-LacNAc-O-octyl] | 17 | – | – | –
OC[C@H]1O[C@H](Oc2ccccc2)[C@H](O)[C@@H](O)[C@H]1O [Gal-O-phenyl] | <1 | – | – | –
COC(=O)CCCCCCCCOC1OC(CO)C(OC2OC(CO)C(O)C(OC3OC(CO)C(O)C(O)C3O)C2O)C(O)C1NC(C)=O (stereo not drawn) [Galα(1→3)-lacNAc-O-gr] | 18 | – | – | –
COC(=O)CCCCCCCCO[C@@H]1O[C@H](CO)[C@@H](O[C@@H]2O[C@H](CO)[C@H](O[C@H]3O[C@H](CO)[C@H](O)[C@H](O)[C@H]3O)[C@H](O)[C@H]2O)[C@H](O)[C@H]1O [Galα(1→4)-lactose-O-gr] | 12 | 17 | – | –
CCCCCCCCO[C@@H]1O[C@H](CO)[C@@H](O)[C@H](O)[C@H]1O [Glc-O-octyl] | <1 | – | – | –
COC(=O)CCCCCCCCOC1OC(CO)C(O)C(O)C1NC(C)=O (stereo not drawn) [GlcNAc-O-gr] | <1 | – | – | –
CC(=O)N[C@H]1C(O)O[C@H](CO)[C@@H](O[C@@H]2O[C@H](CO)[C@H](O)[C@H](O)[C@H]2O)[C@@H]1O (stereo partly drawn) [LacNAc-OH] | 171 | – | – | –
COC(=O)CCCCCCCCO[C@@H]1O[C@H](CO)[C@@H](O[C@@H]2O[C@H](CO)[C@H](O)[C@H](O)[C@H]2O)[C@H](O)[C@H]1NC(C)=O [LacNAc—O-gr] | 100 | 100 | – | –
COC(=O)CCCCCCCCO[C@@H]1O[C@H](CO)[C@@H](O[C@@H]2O[C@H](CO)[C@H](O)[C@H](O)[C@H]2O)[C@H](O)[C@H]1O [Lactose-O-gr] | 90 | 112 | – | –
COC(=O)CCCCCCCCO[C@@H]1O[C@H](CO)[C@@H](O[C@@H]2O[C@@H](C)[C@@H](O)[C@@H](O)[C@@H]2O)[C@H](O[C@@H]2O[C@H](CO)[C@H](O)[C@H](O)[C@H]2O)[C@H]1NC(C)=O [Le^a-gr, 8-methoxycarbonyloctyl β-D-galactopyranosyl-(1→3) [α-L-fucopyranosyl-(1→4)]-β-D-2-acetamide-2-deoxy-glucopyranoside] | 50 | 42 | 4161/4045 | –
COC(=O)CCCCCCCCO[C@@H]1O[C@H](CO)[C@@H](O)[C@H](O[C@@H]2O[C@H](CO)[C@H](O)[C@H](O)[C@H]2O)[C@H]1NC(C)=O [Le^c-O-gr] | 79 | 90 | – | –
COC(=O)CCCCCCCCO[C@@H]1O[C@H](CO)[C@@H](O[C@@H]2O[C@H](CO)[C@H](O)[C@H](O)[C@H]2O)[C@H](O[C@@H]2O[C@@H](C)[C@@H](O)[C@@H](O)[C@@H]2O)[C@H]1NC(C)=O [Le^x-gr, 8-methoxycarbonyloctyl α-L-fucopyranosyl-(1→3)-[β-D-galactopyranosyl-(1→4)]-β-D-2-acetamide-2-deoxy-glucopyranoside] | 21 | 30 | – | 1330/1130
COC(=O)CCCCCCCCO[C@H]1O[C@H](CO)[C@H](O)[C@H](O[C@@H]2O[C@H](CO)[C@H](O)[C@H](O)[C@H]2O)[C@H]1NC(C)=O [T-disaccharide-O-gr] | 64 | 51 | – | –
